Laboratory results: PMC8909834, “An Orally Bioavailable and Highly Efficacious Inhibitor of CDK9/FLT3 for the Treatment of Acute Myeloid Leukemia” (Cancers, 2022)

Experiments:
Experiment in all cases: Kinase Hotspot radiolabel assay
Format in all cases: biochemical
Details in all cases: read-out: % Residual Activity
[1] = biological target: T1, CAMK1d (Homo sapiens, UniProt Q8IU85)
T1 construct: purchased Reaction Biology Corporation (Kinase HotSpot)
Summary of the method: (§1)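 Specificity was assessed across 369 kinases in a radioactive Hotspot assay, testing one compound concentration (1 µM). For any kinase inhibited above 90%, a Ki value was subsequently obtained.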

[2] = biological target: T2, CAMK4 (Homo sapiens, UniProt Q16566)
T2 construct: purchased Reaction Biology Corporation (Kinase HotSpot)
Summary of the method: as §1

[3] = biological target: T3, CDK19/cyclin C (Homo sapiens, UniProt Q9BWU1)
T3 construct: purchased Reaction Biology Corporation (Kinase HotSpot)
T3 sequence (Q9BWU1 whole entry): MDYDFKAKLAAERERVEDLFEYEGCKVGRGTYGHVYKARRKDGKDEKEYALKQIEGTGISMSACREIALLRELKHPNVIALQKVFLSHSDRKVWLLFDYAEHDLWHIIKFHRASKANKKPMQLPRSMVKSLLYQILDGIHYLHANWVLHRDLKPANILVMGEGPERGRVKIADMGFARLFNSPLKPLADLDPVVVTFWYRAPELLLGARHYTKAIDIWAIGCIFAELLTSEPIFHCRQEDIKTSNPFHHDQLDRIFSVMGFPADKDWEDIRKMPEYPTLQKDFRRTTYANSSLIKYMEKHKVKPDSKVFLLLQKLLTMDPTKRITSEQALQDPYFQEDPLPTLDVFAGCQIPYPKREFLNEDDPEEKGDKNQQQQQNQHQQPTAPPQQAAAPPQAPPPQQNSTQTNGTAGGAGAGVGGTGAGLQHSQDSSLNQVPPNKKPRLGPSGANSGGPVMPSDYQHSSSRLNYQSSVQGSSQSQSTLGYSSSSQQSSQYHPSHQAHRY
T3 sequence (P24863 whole entry partner): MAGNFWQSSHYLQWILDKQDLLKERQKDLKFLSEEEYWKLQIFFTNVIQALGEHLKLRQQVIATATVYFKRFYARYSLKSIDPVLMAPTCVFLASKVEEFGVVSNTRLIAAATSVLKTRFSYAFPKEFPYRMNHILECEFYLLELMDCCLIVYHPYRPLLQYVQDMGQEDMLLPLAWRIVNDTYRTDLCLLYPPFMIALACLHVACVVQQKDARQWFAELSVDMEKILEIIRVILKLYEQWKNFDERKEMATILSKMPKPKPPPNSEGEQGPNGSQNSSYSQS
Summary of the method: as §1

[4] = biological target: T4, CDK4/cyclin D1 (Homo sapiens, UniProt P11802)
T4 construct: purchased Reaction Biology Corporation (Kinase HotSpot)
T4 sequence (P11802 whole entry): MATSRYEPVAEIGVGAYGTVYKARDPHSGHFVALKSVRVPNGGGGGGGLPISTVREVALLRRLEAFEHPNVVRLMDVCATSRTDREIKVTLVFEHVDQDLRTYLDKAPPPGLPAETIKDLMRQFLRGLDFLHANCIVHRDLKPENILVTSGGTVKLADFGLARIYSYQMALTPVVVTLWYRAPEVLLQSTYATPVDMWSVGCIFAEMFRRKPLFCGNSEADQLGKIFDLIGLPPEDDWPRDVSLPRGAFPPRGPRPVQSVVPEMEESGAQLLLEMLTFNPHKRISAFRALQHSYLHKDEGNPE
T4 sequence (P24385 whole entry partner): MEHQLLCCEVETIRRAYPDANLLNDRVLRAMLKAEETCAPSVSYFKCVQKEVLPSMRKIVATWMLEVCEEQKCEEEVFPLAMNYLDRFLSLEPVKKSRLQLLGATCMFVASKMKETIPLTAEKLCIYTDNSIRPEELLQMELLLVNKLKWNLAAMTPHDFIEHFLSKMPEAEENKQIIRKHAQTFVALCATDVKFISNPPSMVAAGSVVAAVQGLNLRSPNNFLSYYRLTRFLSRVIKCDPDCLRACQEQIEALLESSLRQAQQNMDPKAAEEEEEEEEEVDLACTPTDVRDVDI
Summary of the method: as §1

[5] = biological target: T5, CHK1 (Homo sapiens, UniProt O14757)
T5 construct: purchased Reaction Biology Corporation (Kinase HotSpot)
Summary of the method: as §1

[6] = biological target: T6, CK1d (Homo sapiens, UniProt P48730)
T6 construct: purchased Reaction Biology Corporation (Kinase HotSpot)
Summary of the method: as §1

[7] = biological target: T7, CK1epsilon (Homo sapiens, UniProt P49674)
T7 construct: purchased Reaction Biology Corporation (Kinase HotSpot)
Summary of the method: as §1

[8] = biological target: T8, CSK (Homo sapiens, UniProt P41240)
T8 construct: purchased Reaction Biology Corporation (Kinase HotSpot)
T8 sequence (P41240 whole entry): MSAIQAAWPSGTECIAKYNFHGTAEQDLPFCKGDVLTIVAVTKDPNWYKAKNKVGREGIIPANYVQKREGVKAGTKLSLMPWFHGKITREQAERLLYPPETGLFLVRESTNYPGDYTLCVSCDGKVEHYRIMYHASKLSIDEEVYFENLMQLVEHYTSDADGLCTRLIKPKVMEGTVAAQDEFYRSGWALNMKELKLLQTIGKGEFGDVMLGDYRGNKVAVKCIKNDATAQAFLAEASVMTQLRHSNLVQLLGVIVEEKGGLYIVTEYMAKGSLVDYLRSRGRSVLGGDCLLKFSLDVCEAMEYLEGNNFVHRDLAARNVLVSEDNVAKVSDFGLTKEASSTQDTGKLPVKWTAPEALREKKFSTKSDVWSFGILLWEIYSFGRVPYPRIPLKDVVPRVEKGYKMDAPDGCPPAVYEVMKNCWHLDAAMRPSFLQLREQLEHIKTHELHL
Summary of the method: as §1

[9] = biological target: T9, DCAMKL1 (Homo sapiens, UniProt O15075)
T9 construct: purchased Reaction Biology Corporation (Kinase HotSpot)
Summary of the method: as §1

[10] = biological target: T10, DYRK4 (Homo sapiens, UniProt Q9NR20)
T10 construct: purchased Reaction Biology Corporation (Kinase HotSpot)
T10 sequence (Q9NR20 whole entry): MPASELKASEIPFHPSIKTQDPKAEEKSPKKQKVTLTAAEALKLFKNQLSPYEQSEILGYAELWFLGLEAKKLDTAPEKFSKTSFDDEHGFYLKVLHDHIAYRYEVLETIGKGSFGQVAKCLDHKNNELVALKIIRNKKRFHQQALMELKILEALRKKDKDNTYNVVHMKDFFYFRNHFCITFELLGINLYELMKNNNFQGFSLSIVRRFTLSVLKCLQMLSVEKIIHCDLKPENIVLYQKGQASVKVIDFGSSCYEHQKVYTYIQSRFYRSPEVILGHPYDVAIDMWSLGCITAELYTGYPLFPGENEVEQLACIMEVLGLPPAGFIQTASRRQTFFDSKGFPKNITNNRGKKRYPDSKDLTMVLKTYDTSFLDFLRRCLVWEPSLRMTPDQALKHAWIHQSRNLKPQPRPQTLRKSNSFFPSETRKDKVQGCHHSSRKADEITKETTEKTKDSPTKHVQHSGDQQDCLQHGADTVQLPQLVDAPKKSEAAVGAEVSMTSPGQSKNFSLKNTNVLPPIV
Summary of the method: as §1

[11] = biological target: T11, FGFR3 (Homo sapiens, UniProt P22607)
T11 construct: purchased Reaction Biology Corporation (Kinase HotSpot)
T11 sequence (P22607 23-806): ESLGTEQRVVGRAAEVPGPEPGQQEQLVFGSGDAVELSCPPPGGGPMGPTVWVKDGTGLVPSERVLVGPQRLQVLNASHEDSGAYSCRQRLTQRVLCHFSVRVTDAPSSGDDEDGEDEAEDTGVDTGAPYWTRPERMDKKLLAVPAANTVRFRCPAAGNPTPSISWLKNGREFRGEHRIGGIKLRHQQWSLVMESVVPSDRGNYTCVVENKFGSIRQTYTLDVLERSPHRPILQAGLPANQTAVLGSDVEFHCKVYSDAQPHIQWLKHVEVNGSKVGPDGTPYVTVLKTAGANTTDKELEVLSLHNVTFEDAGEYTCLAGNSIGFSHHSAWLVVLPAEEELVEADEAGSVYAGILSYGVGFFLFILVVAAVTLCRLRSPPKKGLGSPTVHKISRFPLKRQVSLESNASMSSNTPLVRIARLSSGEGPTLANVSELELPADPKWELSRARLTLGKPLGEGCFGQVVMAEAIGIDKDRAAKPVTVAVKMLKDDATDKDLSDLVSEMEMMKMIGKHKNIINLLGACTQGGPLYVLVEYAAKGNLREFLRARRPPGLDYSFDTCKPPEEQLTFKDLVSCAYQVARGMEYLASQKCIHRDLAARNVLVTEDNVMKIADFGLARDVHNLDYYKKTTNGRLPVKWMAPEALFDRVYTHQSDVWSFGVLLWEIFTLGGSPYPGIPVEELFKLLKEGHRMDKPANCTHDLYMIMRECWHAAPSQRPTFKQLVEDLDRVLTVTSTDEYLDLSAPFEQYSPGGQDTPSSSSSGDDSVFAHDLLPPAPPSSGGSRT
Summary of the method: as §1

[12] = biological target: T12, GCK/MAP4K2 (Homo sapiens, UniProt Q12851)
T12 construct: purchased Reaction Biology Corporation (Kinase HotSpot)
Summary of the method: as §1

[13] = biological target: T13, GRK7 (Homo sapiens, UniProt Q8WTQ7)
T13 construct: purchased Reaction Biology Corporation (Kinase HotSpot)
Summary of the method: as §1

[14] = biological target: T14, HCK (Homo sapiens, UniProt P08631)
T14 construct: purchased Reaction Biology Corporation (Kinase HotSpot)
T14 sequence (P08631 whole entry): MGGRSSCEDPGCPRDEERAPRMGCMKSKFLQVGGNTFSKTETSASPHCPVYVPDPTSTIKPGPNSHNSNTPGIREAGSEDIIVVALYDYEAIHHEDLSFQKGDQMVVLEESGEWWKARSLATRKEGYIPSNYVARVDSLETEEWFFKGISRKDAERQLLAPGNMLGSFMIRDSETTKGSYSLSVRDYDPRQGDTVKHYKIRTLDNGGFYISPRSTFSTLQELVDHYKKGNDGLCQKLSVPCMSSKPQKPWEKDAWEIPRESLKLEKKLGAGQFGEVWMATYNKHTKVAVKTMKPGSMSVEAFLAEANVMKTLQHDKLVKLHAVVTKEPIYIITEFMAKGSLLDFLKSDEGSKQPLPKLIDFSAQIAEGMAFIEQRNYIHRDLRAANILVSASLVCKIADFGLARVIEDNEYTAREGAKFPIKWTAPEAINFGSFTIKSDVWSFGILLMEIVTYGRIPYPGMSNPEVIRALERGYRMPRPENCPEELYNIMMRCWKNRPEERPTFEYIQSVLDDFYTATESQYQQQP
Summary of the method: as §1

[15] = biological target: T15, ITK (Homo sapiens, UniProt Q08881)
T15 construct: purchased Reaction Biology Corporation (Kinase HotSpot)
Summary of the method: as §1

[16] = biological target: T16, MLK4 (Homo sapiens, UniProt Q5TCX8)
T16 construct: purchased Reaction Biology Corporation (Kinase HotSpot)
Summary of the method: as §1

[17] = biological target: T17, MNK2 (Homo sapiens, UniProt Q9HBH9)
T17 construct: purchased Reaction Biology Corporation (Kinase HotSpot)
Summary of the method: as §1

[18] = biological target: T18, MYO3A (Homo sapiens, UniProt Q8NEV4)
T18 construct: purchased Reaction Biology Corporation (Kinase HotSpot)
Summary of the method: as §1

[19] = biological target: T19, NEK1 (Homo sapiens, UniProt Q96PY6)
T19 construct: purchased Reaction Biology Corporation (Kinase HotSpot)
Summary of the method: as §1

[20] = biological target: T20, NEK4 (Homo sapiens, UniProt P51957)
T20 construct: purchased Reaction Biology Corporation (Kinase HotSpot)
Summary of the method: as §1

[21] = biological target: T21, NEK5 (Homo sapiens, UniProt Q6P3R8)
T21 construct: purchased Reaction Biology Corporation (Kinase HotSpot)
Summary of the method: as §1

[22] = biological target: T22, PKD2/PRKD2 (Homo sapiens, UniProt Q9BZL6)
T22 construct: purchased Reaction Biology Corporation (Kinase HotSpot)
T22 sequence (Q9BZL6 whole entry): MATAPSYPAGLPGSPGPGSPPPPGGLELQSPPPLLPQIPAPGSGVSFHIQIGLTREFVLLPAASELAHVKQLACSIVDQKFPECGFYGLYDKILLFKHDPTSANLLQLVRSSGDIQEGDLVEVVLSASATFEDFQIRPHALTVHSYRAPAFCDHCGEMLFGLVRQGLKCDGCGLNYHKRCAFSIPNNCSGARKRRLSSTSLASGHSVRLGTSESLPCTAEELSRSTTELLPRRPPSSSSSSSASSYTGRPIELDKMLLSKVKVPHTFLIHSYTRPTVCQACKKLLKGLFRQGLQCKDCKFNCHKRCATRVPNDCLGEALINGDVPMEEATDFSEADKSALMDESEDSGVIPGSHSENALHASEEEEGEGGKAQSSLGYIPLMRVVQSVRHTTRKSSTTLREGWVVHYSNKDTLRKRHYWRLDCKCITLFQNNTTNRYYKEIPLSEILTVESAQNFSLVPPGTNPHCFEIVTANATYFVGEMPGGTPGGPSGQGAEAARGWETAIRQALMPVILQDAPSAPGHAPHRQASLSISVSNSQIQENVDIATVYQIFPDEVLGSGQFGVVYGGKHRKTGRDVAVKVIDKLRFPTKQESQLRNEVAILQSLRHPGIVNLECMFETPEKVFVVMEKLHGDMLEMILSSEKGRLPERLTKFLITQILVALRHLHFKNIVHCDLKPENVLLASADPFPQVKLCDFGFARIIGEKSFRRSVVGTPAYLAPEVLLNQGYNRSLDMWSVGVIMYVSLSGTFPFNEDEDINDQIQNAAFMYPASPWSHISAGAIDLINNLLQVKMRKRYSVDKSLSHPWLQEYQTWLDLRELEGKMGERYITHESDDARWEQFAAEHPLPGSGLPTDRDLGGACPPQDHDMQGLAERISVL
Summary of the method: as §1

[23] = biological target: T23, PLK1 (Homo sapiens, UniProt P53350)
T23 construct: purchased Reaction Biology Corporation (Kinase HotSpot)
Summary of the method: as §1

[24] = biological target: T24, RSK2 (Homo sapiens, UniProt P51812)
T24 construct: purchased Reaction Biology Corporation (Kinase HotSpot)
Summary of the method: as §1

[25] = biological target: T25, SIK3 (Homo sapiens, UniProt Q9Y2K2)
T25 construct: purchased Reaction Biology Corporation (Kinase HotSpot)
Summary of the method: as §1

[26] = biological target: T26, SNARK/NUAK2 (Homo sapiens, UniProt Q9H093)
T26 construct: purchased Reaction Biology Corporation (Kinase HotSpot)
Summary of the method: as §1

[27] = biological target: T27, TESK2 (Homo sapiens, UniProt Q96S53)
T27 construct: purchased Reaction Biology Corporation (Kinase HotSpot)
Summary of the method: as §1

[28] = biological target: T28, TRKA (Homo sapiens, UniProt P04629)
T28 construct: purchased Reaction Biology Corporation (Kinase HotSpot)
Summary of the method: as §1

[29] = biological target: T29, TSSK2 (Homo sapiens, UniProt Q96PF2)
T29 construct: purchased Reaction Biology Corporation (Kinase HotSpot)
Summary of the method: as §1

[30] = biological target: T30, VRK2 (Homo sapiens, UniProt Q86Y07)
T30 construct: purchased Reaction Biology Corporation (Kinase HotSpot)
Summary of the method: as §1

T1 sequence (Q8IU85 whole entry): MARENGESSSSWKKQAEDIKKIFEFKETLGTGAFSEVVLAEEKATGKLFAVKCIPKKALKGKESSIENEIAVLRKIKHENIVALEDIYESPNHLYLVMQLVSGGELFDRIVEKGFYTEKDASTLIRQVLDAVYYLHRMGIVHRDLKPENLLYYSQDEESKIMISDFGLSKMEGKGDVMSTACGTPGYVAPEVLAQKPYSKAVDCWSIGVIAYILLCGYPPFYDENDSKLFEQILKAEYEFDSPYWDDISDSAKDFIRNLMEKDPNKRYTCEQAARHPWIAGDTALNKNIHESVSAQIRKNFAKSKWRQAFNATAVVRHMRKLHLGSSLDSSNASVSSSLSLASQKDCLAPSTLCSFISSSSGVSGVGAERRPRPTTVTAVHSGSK

`Cc1cnc(N[C@H]2CC[C@H](N)CC2)nc1-c1cnc2ccc(-c3ccccc3)cn12` [CDDD11-8] gave a remaining activity at 1 µM [1] of 87.1%, a remaining activity at 1 µM [2] of 97.3% and a remaining activity at 1 µM [3] of 38%. It also gave a remaining activity at 1 µM [4] of 89.3%, a remaining activity at 1 µM [5] of 95.2% and a remaining activity at 1 µM [6] of 17.6%. It also gave a remaining activity at 1 µM [7] of 37.1%, a remaining activity at 1 µM [8] of 91.2% and a remaining activity at 1 µM [9] of 113%. For the same compound, the remaining activity at 1 µM [10] was 93.6%, the remaining activity at 1 µM [11] was 92.8% and the remaining activity at 1 µM [12] was 24.8%. It also gave a remaining activity at 1 µM [13] of 70.7%, a remaining activity at 1 µM [14] of 62.7% and a remaining activity at 1 µM [15] of 87.5%. It also gave a remaining activity at 1 µM [16] of 112%, a remaining activity at 1 µM [17] of 83.5% and a remaining activity at 1 µM [18] of 87.3%. For the same compound, the remaining activity at 1 µM [19] was 40.8%, the remaining activity at 1 µM [20] was 78.8% and the remaining activity at 1 µM [21] was 28.7%. For the same compound, the remaining activity at 1 µM [22] was 62.7%, the remaining activity at 1 µM [23] was 97.3% and the remaining activity at 1 µM [24] was 71%. The remaining activity at 1 µM [25] was 59.9%, the remaining activity at 1 µM [26] was 45.2% and the remaining activity at 1 µM [27] was 100%. For the same compound, the remaining activity at 1 µM [28] was 14.2%, the remaining activity at 1 µM [29] was 93.8% and the remaining activity at 1 µM [30] was 35.7%.
